The values that follow come from publication doi:10.1101/366146v2 (biorxiv, 2018).

≈ marks a conversion by molar mass, not a printed value. Read-outs that look alike come from different tables or passages of the source.

Holding throughout (test): microbe, parasite or virus in culture
Holding throughout (parameters): species or system Enterobacteriaceae strains

For assay [1], the system named is K. pneumoniae IMP-8. As to conditions: Klebsiella pneumoniae, IMP8, read-out: MIC.
For assay [2], the system named is C. freundii NDM-1. As to conditions: Citrobacter freundii, NDM1, read-out: MIC.
Assay [3] has as its system E. coli VIM-2. As to conditions: Escherichia coli, VIM2, read-out: MIC.
Assay [4] concerns K. pneumoniae OXA-48. As to conditions: Klebsiella pneumoniae, OXA48, read-out: MIC.
Assay [5] relates to E. coli VIM-1. As to conditions: Escherichia coli, VIM1, read-out: MIC.
Assay [6] relates to K. pneumoniae ATCC BAA 1706. As to conditions: Klebsiella pneumoniae, BAA1706, read-out: MIC.
The test system of assay [7] is E. cloacae IMP-1. The note with it: Enterobacter cloacae, IMP1, read-out: MIC.
In assay [8] the test system is E. cloacae VIM-1. As to conditions: Enterobacter cloacae, VIM1, read-out: MIC.
The test system of assay [9] is E. coli IMP-1. As to conditions: Escherichia coli, IMP1, read-out: MIC.
Assay [10] has as its system P. stuartii NDM-1. As to conditions: Providencia stuartii, NDM1, read-out: MIC.
For assay [11], the system named is E. cloacae IMP-8. As to conditions: Enterobacter cloacae, IMP8, read-out: MIC.
The test system of assay [12] is K. pneumoniae VIM-1. As to conditions: Klebsiella pneumoniae, VIM1, read-out: MIC.
Assay [13] concerns P. rettgeri NDM-1. The note with it: Providencia rettgeri, NDM1, read-out: MIC.
Assay [14] concerns E. cloacae NDM-1. As to conditions: Enterobacter cloacae, NDM1, read-out: MIC.
For assay [15], the system named is E. coli NDM-1. As to conditions: Escherichia coli, NDM1, read-out: MIC.
Assay [16] concerns E. coli NDM-4. The note with it: Escherichia coli, NDM4, read-out: MIC.
The test system of assay [17] is E. coli ATCC 25922. As to conditions: Escherichia coli, ATCC25922, read-out: MIC.
In assay [18] the test system is K. pneumoniae IMP-1. The note with it: Klebsiella pneumoniae, IMP1, read-out: MIC.
For assay [19], the system named is E. cloacae IMP-8. As to conditions: Enterobacter cloacae, IMP8, read-out: MIC. This is another data set of the same source.
For assay [20], the system named is C. freundii NDM-1. As to conditions: Citrobacter freundii, NDM1, read-out: MIC. The source holds these as a separate data set.
In assay [21] the test system is P. rettgeri NDM-1. The note with it: Providencia rettgeri, NDM1, read-out: MIC. The source holds these as a separate data set.
The subject of assay [22] is P. stuartii NDM-1. As to conditions: Providencia stuartii, NDM1, read-out: MIC. The source holds these as a separate data set.
Assay [23] concerns E. coli VIM-1. As to conditions: Escherichia coli, VIM1, read-out: MIC. The source holds these as a separate data set.
Assay [24] has as its system E. coli VIM-2. As to conditions: Escherichia coli, VIM2, read-out: MIC. This is another data set of the same source.
Assay [25] concerns E. coli NDM-4. As to conditions: Escherichia coli, NDM4, read-out: MIC. The source holds these as a separate data set.
For assay [26], the system named is E. cloacae VIM-1. As to conditions: Enterobacter cloacae, VIM1, read-out: MIC. The source holds these as a separate data set.
Assay [27] concerns K. pneumoniae VIM-1. The note with it: Klebsiella pneumoniae, VIM1, read-out: MIC. This is another data set of the same source.
Assay [28] deals with E. cloacae NDM-1. As to conditions: Enterobacter cloacae, NDM1, read-out: MIC. This is another data set of the same source.
Assay [29] relates to K. pneumoniae OXA-48. The note with it: Klebsiella pneumoniae, OXA48, read-out: MIC. This is another data set of the same source.
The test system of assay [30] is E. cloacae IMP-1. The note with it: Enterobacter cloacae, IMP1, read-out: MIC. The source holds these as a separate data set.
For assay [31], the system named is E. coli ATCC 25922. The note with it: Escherichia coli, ATCC25922, read-out: MIC. This is another data set of the same source.
Assay [32] has as its system K. pneumoniae IMP-1. As to conditions: Klebsiella pneumoniae, IMP1, read-out: MIC. This is another data set of the same source.
Assay [33] relates to E. coli NDM-1. As to conditions: Escherichia coli, NDM1, read-out: MIC. This is another data set of the same source.
Assay [34] concerns E. coli IMP-1. The note with it: Escherichia coli, IMP1, read-out: MIC. This is another data set of the same source.
The test system of assay [35] is K. pneumoniae IMP-8. The note with it: Klebsiella pneumoniae, IMP8, read-out: MIC. This is another data set of the same source.
Assay [36] has as its system K. pneumoniae ATCC BAA 1706. The note with it: Klebsiella pneumoniae, BAA1706, read-out: MIC. This is another data set of the same source.

Consider `C[C@@H](O)[C@H]1C(=O)N2C(C(=O)O)=C(S[C@@H]3CN[C@H](C(=O)N(C)C)C3)[C@H](C)[C@H]12` [MEM, meropenem], for which the MIC in the assay with K. pneumoniae IMP-8 [1] is 16 µg/mL (≈ 41.7 µM); with C. freundii NDM-1 [2] it was 8 µg/mL (≈ 20.9 µM); in the assay with E. coli VIM-2 [3], 8 µg/mL (≈ 20.9 µM); with K. pneumoniae OXA-48 [4] it was 8 µg/mL (≈ 20.9 µM); in the assay on E. coli VIM-1 [5], 32 µg/mL (≈ 83.4 µM); in [6], 0.5 µg/mL (≈ 1.3 µM). Besides, the MIC amounted to 32 µg/mL (≈ 83.4 µM) in the assay on E. cloacae IMP-1 [7]; 8 µg/mL (≈ 20.9 µM) with E. cloacae VIM-1 [8]; 16 µg/mL (≈ 41.7 µM) in the assay with E. coli IMP-1 [9]; 16 µg/mL (≈ 41.7 µM) with P. stuartii NDM-1 [10]; 8 µg/mL (≈ 20.9 µM) in the assay with E. cloacae IMP-8 [11]; 32 µg/mL (≈ 83.4 µM) in the assay with K. pneumoniae VIM-1 [12]. Besides, the MIC in the assay on P. rettgeri NDM-1 [13] stood at 64 µg/mL (≈ 167 µM); with E. cloacae NDM-1 [14], 16 µg/mL (≈ 41.7 µM); in the assay on E. coli NDM-1 [15], 128 µg/mL (≈ 334 µM); in the assay on E. coli NDM-4 [16], 128 µg/mL (≈ 334 µM); with E. coli ATCC 25922 [17] it was 0.03 µg/mL (≈ 0.0782 µM); with K. pneumoniae IMP-1 [18], 32 µg/mL (≈ 83.4 µM).

`C1CNCCNCCN1` [compound 1, 1,4,7-triazacyclononane]: the MIC with E. cloacae IMP-8 [19] is 512 µg/mL (≈ 3960 µM); in the assay with C. freundii NDM-1 [20], 1020 µg/mL (≈ 7930 µM); in the assay on P. rettgeri NDM-1 [21], above 1020 µg/mL; with P. stuartii NDM-1 [22], above 1020 µg/mL; with E. coli VIM-1 [23] it was 1020 µg/mL (≈ 7930 µM); with E. coli VIM-2 [24], 128 µg/mL (≈ 991 µM). Further, the MIC was 1020 µg/mL (≈ 7930 µM) in the assay on E. coli NDM-4 [25]; 128 µg/mL (≈ 991 µM) in the assay with E. cloacae VIM-1 [26]; 512 µg/mL (≈ 3960 µM) in the assay on K. pneumoniae VIM-1 [27]; above 1020 µg/mL in the assay with E. cloacae NDM-1 [28]; 128 µg/mL (≈ 991 µM) in the assay on K. pneumoniae OXA-48 [29]; 512 µg/mL (≈ 3960 µM) in the assay on E. cloacae IMP-1 [30]. The MIC stood at 1020 µg/mL (≈ 7930 µM) with E. coli ATCC 25922 [31]; 512 µg/mL (≈ 3960 µM) with K. pneumoniae IMP-1 [32]; 1020 µg/mL (≈ 7930 µM) with E. coli NDM-1 [33]; 512 µg/mL (≈ 3960 µM) in the assay on E. coli IMP-1 [34]; 1020 µg/mL (≈ 7930 µM) in the assay on K. pneumoniae IMP-8 [35]; 1020 µg/mL (≈ 7930 µM) in assay [36].
